The target in one series is T1, CYP3A4 (Homo sapiens, UniProt P08684).
T1 construct: host or cells: E. coli
Description: CYP3A4 fluorescence MBI test. As to conditions: difference in IC50 with 0 or 30 minutes pre-reaction; CYP3A4 expressed in E. coli, substrate 7-BFC. Format: in vitro ADME. Put shortly:
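E. coli-expressed CYP3A4 debenzylating 5.6 μmol/L 7-BFC to fluorescent 7-HFC (Ex 420/Em 535 nm) in K-Pi pH 7.4 at 25° C, 15 min reaction. NADPH pre-incubation of 0 or 30 min, with 10-fold dilution before reaction. IC50 from 0.625–20 μmol/L (6 points); (+) for an IC50 shift ≥5 μmol/L, (−) for ≤3 μmol/L.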

Series [1] in a line: BA test (oral absorbability, bioavailability). Type of series: in vivo. The method, then: An experimental material and a method for examining oral absorbability
(1) Animals used: rats or mice were used. (2) Breeding condition: chow and sterilized tap water were allowed to be taken in freely. (3) Setting of a dosage and grouping: a predetermined dosage was administered orally or intravenously. Groups were formed as shown below. (A dosage varied depending on each compound)
Oral administration 1-30 mg/kg (n=2 to 3)
Intravenous administration 0.5-10 mg/kg (n=2 to 3)
(4) Preparation of administered liquid: In oral administration, a solution or suspension was administered. In intravenous administration, after solubilization, the administration was performed. (5) Method of Administration: In oral administration, compulsory administration to the stomach was conducted using an oral probe. In intravenous administration, administration from the caudal vein was conducted using a syringe with an injection needle. (6) Evaluation item: Blood was chronologically collected, and then the drug concentration in blood plasma was measured using a LC/MS/MS. (7) Statistical analysis: With regard to a shift in plasma concentration, the plasma concentration-time area under the curve (AUC) was calculated using a nonlinear least-squares program WinNonlin®. Bioavailability (BA) was calculated from the AUCs of the oral administration group and the intravenous administration group, respectively.

The next series concerns the target PI3Kα (Homo sapiens, UniProt P42336). Kind of series: PI3Kα inhibitory activity (Ki value). The following applies: class symbols; read-out: PI3K α Ki. Format: biochemical. The method, then: According to Example 2 above, after 80 μg/mL PI-3 kinase γ of the enzyme solution (80 μg/mL PI-3 kinase γ, 10 mmol/L MgCl2, 5 mmol/L DTT) was changed to 0.8 μg/mL PI-3 kinase α, an inhibition ratio was calculated by a method similar to the method for measuring PI3Kγ inhibitory activity, and then defined as the PI3Kα inhibitory activity.
The α inhibitory activity (Ki value) of a compound was evaluated according to the following procedure.
According to Example 4 above, a Km value for PI3Kα was determined to calculate a Ki value.

Series [2] has as its target T2, PI3Kγ (Homo sapiens, UniProt P48736). Description: PI3Kγ inhibitory activity (PI3-kinase HTRF assay, inhibition ratio). Format: biochemical. The following applies: 0.5 h, compound at 10 μmol/L; read-out: PI3Kg Inhibition Ratio % (10 μM). Summed up:
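Compound at 10 μmol/L preincubated 10 min with PI3Kγ and PIP2 substrate, then reacted with ATP for 30 minutes at room temperature; the compound, substrate and ATP figures as printed (40 μmol/L each) are solution concentrations. HTRF 665/620 nm ratio read after 18 hours. Inhibition ratio calculated against no-compound (100%) and no-enzyme (0%) controls.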
(Time-resolved FRET reads energy transfer from a long-lived donor to a nearby acceptor.)

For series [3], the target named is T2, PI3Kγ. Kind of series: PI3Kγ inhibitory activity (Ki value). Type of series: biochemical. Summed up: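 Ki derived from IC50 measured at final compound levels of 50–0.05 μmol/L (HTRF read-out; 40 μmol/L ATP, 10 mmol/L MgCl2, 5 mmol/L DTT), IC50 by logistic or two-point linear fit. ATP Km from Lineweaver-Burk over 0.625–80 μmol/L ATP; Ki = IC50/(1+[ATP]/Km).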

A short description of series [4]: Metabolic stability test (pooled human liver microsome). As to conditions: percentage of test compound remained after 30 minutes, pooled human liver microsome 0.5 mg protein/mL, 1 mmol/L NADPH, 37° C., compound 0.5 μM. Format: in vitro ADME. Put shortly:
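Pooled human liver microsomes (0.5 mg protein/mL) incubated with compound and 1 mmol/L NADPH at 37° C. in pH 7.4 Tris buffer for 0 or 30 min. Parent quantified by LC/MS/MS after methanol/acetonitrile quench; value is % remaining at 30 min versus 0 min.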
On the technique in general: Liver microsomes are a subcellular fraction often used to study metabolism.

The target in another series is PI3Kδ (Homo sapiens, UniProt O00329). Kind of series: PI3Kδ inhibitory activity (Ki value). As to conditions: class symbols; read-out: PI3K δ Ki. Type of series: biochemical. The procedure: According to Example 2 above, after 80 μg/mL PI-3 kinase γ of the enzyme solution (80 μg/mL PI-3 kinase γ, 10 mmol/L MgCl2, 5 mmol/L DTT) was changed to 158 μg/mL PI-3 kinase δ, a method similar to the method for measuring PI3Kγ inhibitory activity was used to calculate an inhibition ratio, which was defined as the PI3Kδ inhibitory activity.
According to Example 4 above, a Km value for PI3Kδ was determined to calculate a Ki value.

Series [5] in a line: Solubility test (artificial intestinal juice pH 6.8, 1% DMSO). Format: physicochemical. As to conditions: artificial intestinal juice pH 6.8 with 1% DMSO, fassgf or other biorelevant, kinetic from dmso stock, 25° C. The method, then:
The solubility of a compound was determined under a condition in which 1% DMSO was added. 10 mmol/L compound solution was prepared using DMSO, and then 6 μL of the compound solution was added to 594 μL of artificial intestinal juice in pH 6.8 (to 250 mL of 0.2 mol/L potassium dihydrogen phosphate reagent solution was added 118 mL of 0.2 mol/L NaOH reagent solution and water to provide a final volume of 1000 mL). After standing at 25° C. for 16 hours, the mixed solution was filtered with suction. The filtrate was diluted twice with methanol/water (1/1), and then a concentration in the filtration was measured with HPLC or LC/MS/MS by the absolute calibration method.

For a further series, the target named is PI3Kβ (Homo sapiens, UniProt P42338). Kind of series: PI3Kβ inhibitory activity (Ki value). Type of series: biochemical. As to conditions: class symbols; read-out: PI3K β Ki. The procedure:
According to Example 2 above, after 80 μg/mL PI-3 kinase γ of the enzyme solution (80 μg/mL PI-3 kinase γ, 10 mmol/L MgCl2, 5 mmol/L DTT) was changed to 60 μg/mL PI-3 kinase β, a method similar to the method for measuring PI3Kγ inhibitory activity was used to calculate an inhibition ratio, which was defined as the PI3Kβ inhibitory activity.
According to Example 4 above, a Km value for PI3Kβ was determined to calculate a Ki value.

For the next series, the system named is AKT phosphorylation. Kind of series: AKT phosphorylation inhibitory activity in MCP-1 stimulated THP-1 cells (sandwich ELISA). Type of series: cell-based, Human. As to conditions: Homo sapiens, compound at 1 μmol/L, MCP-1 stimulation, read-out: AKT phosphorylation inhibition ratio. Summed up: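 THP-1 cells (6.7×10^6/mL in HBSS) were preincubated with compound at 1 μmol/L for 5 min at 37 °C, then stimulated for 60 s with HBSS containing 1.2 μg/mL MCP-1 and lysed. Phospho-Akt Ser473/AKT1 sandwich ELISA was read at A450. % inhibition: no compound = 100% activity, no MCP-1 = 0%.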

Series [6] concerns the target T3, human ether-a-go-go related gene (hERG) channel (Homo sapiens, UniProt Q12809).
T3 construct: expressed in transfected cells; host or cells: HEK293
Description: hERG test (whole-cell patch-clamp, IKr in HEK293 cells). Type of series: cell-based. The following applies: inhibition of maximum tail current (IKr), HEK293 cell expressing hERG, compound 1 μM, 10 minutes; 1 µM. Summed up:
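hERG-expressing HEK293 cells, automated whole-cell patch clamp: hold −80 mV, +50 mV for 2 s, then −50 mV for 2 s to record IKr tail current. Compound in extracellular solution (pH 7.4) for 10 min at room temperature; inhibition of maximum tail current calculated versus pre-application and compared with 0.1% DMSO vehicle.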

The structures appear in SMILES notation. Values after ≈ are worked out from the molar mass of the structure shown. Like-named read-outs stand apart in the source and are kept apart here.

T2 sequence (P48736 whole entry, species assumed): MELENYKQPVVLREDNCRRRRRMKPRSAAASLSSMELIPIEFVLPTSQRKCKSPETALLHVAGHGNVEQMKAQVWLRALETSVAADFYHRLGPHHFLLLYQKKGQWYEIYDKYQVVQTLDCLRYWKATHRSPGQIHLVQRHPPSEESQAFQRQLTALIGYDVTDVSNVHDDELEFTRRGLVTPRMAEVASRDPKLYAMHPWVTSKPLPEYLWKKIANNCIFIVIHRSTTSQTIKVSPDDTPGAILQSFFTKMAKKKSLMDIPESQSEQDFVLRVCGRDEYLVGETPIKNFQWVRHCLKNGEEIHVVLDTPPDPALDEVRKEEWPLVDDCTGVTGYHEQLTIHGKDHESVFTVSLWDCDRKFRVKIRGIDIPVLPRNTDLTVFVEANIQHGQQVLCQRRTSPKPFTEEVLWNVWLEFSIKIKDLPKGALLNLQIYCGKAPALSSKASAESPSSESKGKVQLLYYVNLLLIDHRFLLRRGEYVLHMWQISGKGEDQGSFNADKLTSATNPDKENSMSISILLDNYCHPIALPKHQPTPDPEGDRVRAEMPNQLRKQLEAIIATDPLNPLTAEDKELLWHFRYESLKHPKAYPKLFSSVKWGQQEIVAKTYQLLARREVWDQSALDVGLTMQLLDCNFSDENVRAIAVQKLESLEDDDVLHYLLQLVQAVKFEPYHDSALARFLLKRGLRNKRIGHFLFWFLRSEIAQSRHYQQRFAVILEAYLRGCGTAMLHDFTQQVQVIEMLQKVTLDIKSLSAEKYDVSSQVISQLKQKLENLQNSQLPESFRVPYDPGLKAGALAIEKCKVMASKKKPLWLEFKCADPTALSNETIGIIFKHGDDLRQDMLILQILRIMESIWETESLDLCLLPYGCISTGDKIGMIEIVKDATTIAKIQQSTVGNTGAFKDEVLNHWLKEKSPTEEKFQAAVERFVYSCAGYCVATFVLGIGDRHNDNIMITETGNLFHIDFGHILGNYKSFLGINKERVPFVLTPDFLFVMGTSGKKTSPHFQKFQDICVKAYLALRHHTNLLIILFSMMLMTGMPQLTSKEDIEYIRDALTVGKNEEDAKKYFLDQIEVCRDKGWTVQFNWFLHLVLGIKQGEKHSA
Sequence of PI3Kα (P42336 whole entry, species assumed): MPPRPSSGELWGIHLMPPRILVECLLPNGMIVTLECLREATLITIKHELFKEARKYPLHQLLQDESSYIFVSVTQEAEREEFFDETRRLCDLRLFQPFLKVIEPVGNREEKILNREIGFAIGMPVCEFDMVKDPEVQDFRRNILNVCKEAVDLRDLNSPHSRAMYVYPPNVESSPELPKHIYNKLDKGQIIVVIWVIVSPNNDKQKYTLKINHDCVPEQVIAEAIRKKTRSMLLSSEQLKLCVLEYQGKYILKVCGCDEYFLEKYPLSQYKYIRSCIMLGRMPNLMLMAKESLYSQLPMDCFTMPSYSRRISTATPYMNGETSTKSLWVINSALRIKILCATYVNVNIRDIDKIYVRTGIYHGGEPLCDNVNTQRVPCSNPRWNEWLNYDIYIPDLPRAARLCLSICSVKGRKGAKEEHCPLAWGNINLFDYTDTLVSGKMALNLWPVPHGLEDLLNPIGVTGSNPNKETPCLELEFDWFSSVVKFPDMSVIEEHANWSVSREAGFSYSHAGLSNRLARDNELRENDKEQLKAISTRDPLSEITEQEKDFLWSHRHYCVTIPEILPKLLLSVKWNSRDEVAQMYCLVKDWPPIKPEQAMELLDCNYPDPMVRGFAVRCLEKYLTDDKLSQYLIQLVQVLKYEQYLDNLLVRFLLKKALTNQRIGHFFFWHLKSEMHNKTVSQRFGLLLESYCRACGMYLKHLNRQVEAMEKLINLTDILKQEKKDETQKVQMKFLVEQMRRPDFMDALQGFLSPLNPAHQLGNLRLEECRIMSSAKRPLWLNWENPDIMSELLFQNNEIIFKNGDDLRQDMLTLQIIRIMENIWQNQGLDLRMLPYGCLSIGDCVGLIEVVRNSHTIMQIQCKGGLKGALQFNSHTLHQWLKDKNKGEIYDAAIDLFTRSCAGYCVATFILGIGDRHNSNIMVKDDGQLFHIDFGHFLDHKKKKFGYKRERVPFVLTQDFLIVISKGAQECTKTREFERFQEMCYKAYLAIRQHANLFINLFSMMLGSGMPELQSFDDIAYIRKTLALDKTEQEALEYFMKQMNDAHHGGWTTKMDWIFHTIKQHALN
Sequence of PI3Kα (P27986 whole entry partner, species assumed): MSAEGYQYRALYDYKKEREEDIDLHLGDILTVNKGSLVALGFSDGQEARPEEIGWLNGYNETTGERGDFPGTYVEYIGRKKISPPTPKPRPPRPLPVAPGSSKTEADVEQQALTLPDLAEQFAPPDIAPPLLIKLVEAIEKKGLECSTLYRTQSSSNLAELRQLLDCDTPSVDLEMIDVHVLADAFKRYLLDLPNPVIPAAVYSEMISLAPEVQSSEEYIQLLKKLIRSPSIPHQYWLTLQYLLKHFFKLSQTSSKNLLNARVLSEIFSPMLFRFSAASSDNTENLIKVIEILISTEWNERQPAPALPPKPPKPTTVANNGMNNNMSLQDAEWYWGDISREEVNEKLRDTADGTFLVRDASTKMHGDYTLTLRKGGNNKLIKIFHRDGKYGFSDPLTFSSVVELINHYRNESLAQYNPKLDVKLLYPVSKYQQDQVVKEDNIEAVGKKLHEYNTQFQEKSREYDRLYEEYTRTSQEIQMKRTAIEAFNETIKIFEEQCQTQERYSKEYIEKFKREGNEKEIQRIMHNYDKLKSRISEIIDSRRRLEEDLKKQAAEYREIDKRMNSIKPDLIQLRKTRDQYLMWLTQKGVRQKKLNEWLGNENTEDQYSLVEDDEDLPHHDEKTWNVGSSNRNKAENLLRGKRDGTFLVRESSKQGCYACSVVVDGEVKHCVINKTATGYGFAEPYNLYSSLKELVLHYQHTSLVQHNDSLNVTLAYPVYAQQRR
T3 sequence (Q12809 whole entry): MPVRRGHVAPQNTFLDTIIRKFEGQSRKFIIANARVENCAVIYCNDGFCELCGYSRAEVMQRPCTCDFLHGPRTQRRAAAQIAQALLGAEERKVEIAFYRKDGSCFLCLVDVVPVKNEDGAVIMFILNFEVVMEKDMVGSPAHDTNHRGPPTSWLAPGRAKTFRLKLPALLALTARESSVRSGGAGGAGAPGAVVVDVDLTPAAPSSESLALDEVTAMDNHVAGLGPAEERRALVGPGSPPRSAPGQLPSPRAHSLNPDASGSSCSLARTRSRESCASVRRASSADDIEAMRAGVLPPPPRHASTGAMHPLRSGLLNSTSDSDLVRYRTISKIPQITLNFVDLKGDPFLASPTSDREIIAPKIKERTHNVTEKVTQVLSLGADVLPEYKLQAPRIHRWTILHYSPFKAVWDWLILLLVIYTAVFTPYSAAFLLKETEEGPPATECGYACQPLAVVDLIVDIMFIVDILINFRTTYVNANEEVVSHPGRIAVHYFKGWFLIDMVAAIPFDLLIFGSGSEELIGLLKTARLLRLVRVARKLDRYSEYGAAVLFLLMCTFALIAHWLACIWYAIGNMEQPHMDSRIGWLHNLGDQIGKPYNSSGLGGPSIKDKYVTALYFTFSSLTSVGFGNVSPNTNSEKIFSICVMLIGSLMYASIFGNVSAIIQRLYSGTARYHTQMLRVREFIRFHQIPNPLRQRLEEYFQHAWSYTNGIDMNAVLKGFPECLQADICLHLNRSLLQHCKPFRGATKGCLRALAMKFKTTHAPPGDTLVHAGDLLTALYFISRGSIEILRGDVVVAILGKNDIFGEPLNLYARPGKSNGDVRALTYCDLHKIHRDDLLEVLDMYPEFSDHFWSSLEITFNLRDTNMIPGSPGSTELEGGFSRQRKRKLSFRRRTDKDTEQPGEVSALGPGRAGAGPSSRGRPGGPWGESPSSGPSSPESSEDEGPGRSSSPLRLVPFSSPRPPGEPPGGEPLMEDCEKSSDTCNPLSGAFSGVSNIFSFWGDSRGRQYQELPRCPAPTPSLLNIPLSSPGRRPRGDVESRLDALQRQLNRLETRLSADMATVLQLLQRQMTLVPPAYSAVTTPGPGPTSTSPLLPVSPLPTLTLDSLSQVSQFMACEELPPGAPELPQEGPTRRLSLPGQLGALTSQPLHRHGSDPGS
T1 sequence (P08684 whole entry): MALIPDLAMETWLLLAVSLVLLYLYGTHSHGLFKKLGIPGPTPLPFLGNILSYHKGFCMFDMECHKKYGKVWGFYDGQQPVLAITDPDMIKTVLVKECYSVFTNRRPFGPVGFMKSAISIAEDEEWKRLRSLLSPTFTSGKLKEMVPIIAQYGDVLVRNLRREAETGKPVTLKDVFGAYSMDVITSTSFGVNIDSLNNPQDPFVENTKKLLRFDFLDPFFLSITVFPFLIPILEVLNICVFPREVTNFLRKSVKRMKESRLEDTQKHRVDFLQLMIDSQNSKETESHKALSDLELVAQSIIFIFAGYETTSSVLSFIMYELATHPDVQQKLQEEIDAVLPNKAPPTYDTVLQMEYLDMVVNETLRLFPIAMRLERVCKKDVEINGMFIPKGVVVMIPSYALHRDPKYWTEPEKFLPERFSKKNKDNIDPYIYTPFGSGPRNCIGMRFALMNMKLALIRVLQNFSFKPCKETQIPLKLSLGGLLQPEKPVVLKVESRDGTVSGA

Turning to `COc1cc(N2CCc3nc(NC(=O)Nc4ccccc4C(=O)NC(C)C)sc3C2)ccn1` [Compound I-52], at CYP3A4, the MBI result is listed as “(−) (When 3 μmol/L or less, the compound is shown as (−))”. Moreover, the “BA (Rat, 1 mg/kg, Methylcellulose suspension Oral Administration)” value in [1] came out at 40.9%.

On to `C[C@@H](CO)NC(=O)c1ccccc1NC(=O)Nc1nc2c(s1)CN(c1cc[nH]c(=O)c1)CC2` [Compound I-183], for which the inhibition constant Ki (in general, a dissociation constant, usually derived from enzyme kinetics or from competition with a known ligand) on PI3Kα was more than 3 µM; on PI3Kγ [3] (class symbols, read-out: PI3K γ Ki) it was not above 300 nM; on PI3Kγ [3] (read-out: PI3Kγ Ki value), 90 nM; at PI3Kδ, more than 3 µM; on PI3Kβ it was more than 3 µM. The inhibition at 10 µM at PI3Kγ [2] was found to be 91%. Further, the “hLMS_ox(at 0.5 μM) %” value in series [4] was determined as 109%. Further, the concentration in solution in series [5] (solubility at 16 h) came to 28.1 µM (≈ 13.2 µg/mL).

With `COc1cc(N2CCc3nc(NC(=O)Nc4ccccc4C(=O)NC(C)C(O)C(F)(F)F)sc3C2)nc(OC)n1` (centres unmarked) [Compound I-138], the inhibition at 1 µM in the series with AKT phosphorylation was not below 95%. The inhibition at 10 µM on PI3Kγ [2] is not below 95%. Besides, the “hERG(at 1 μM) % Inhibition” value in [6] came out at 2.8%. For the same compound, the “hLMS_ox(at 0.5 μM) %” value in series [4] was found to be 82.6%.

The values above are taken from patent publication US20120071475A1, “UREA DERIVATIVES HAVING PI3K-INHIBITING ACTIVITY” (SHIONOGI & CO., LTD., priority 2009, published 2012).
